In the experiment the target is T1, Mad1 597–718 Glu710Ala/Phe712Ala (Homo sapiens, UniProt Q9Y6D9, E710A/F712A).
T1 construct: His; Strep; made in house; host or cells: E. coli BL21(DE3) (stated for the wild-type construct)
T1 sequence (Q9Y6D9 597-718 E710A/F712A): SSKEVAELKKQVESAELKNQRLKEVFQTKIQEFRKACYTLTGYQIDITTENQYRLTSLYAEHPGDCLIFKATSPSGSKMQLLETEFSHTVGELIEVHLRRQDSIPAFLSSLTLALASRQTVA
As to the kind of experiment: SPR, binding of CD1 peptide to Mad1 597–718 Glu710Ala/Phe712Ala. The settings on record: steady state, similar to Fig. 4. An excerpt:
To investigate this, we first tested the role of these Mad1 residues in binding Bub1. We measured the ability of recombinant Mad1 (597–718) Glu710Ala/Phe712Ala to bind the CD1 peptide phosphorylated on Thr461. […] This argues that Mad1 has an important function in the checkpoint in addition to interacting with Mad2 and Bub1.
Figure 6 Residues in Mad1 are important for SAC function but not Bub1 binding. (a) SPR steady-state responses for pT461 Bub1 CD1 peptides to purified Mad1 597–718 Glu710Ala/Phe712Ala protein similar to Fig. 4. (b) Nocodazole arrested stable HeLa cell lines expressing Mad1-BirA or mutants were treated with biotin as indicated and biotinylated proteins were isolated. The samples were analysed for the presence of KNL1, Bub1 and BubR1 by western blot. Mad1-BirA (WT), Mad1(EFR/AAA)-BirA and Mad1 (RLK/AAA)-BirA. Representative of two independent experiments. […] Live cell imaging and quantification were performed as in Fig. 5a. […] The number of cells analysed per condition is indicated above. […]
Bub1 peptides were purchased from Biosyntan Gmbh (Germany). The purity obtained in the synthesis was 95–98% as determined by high-performance liquid chromatography (HPLC) and the identity of the peptides was confirmed by mass spectrometry. […] Sensorgrams were analysed after double referencing. […]
In general terms: SPR reads the build-up and loss of mass on a sensor chip optically.

Structures are written as SMILES. Square brackets hold non-standard residues; d marks the D form. Peptide text beside a SMILES is read from it. * marks the point of attachment. Biotin = O=C1N[C@H]2[C@H](CS[C@H]2CCCCC(=O)*)N1; pT = C[C@@H](OP(=O)(O)O)[C@H](N)C(=O)O; Nle = CCCC[C@H](N)C(=O)O

On to `CCCC[C@H](NC(=O)[C@H](CC(N)=O)NC(=O)[C@H](CCCC)NC(=O)[C@@H](NC(=O)[C@H](Cc1ccccc1)NC(=O)CNC(=O)[C@H](CC(C)C)NC(=O)[C@H](C)NC(=O)[C@H](CCC(=O)O)NC(=O)[C@H](CCCCN)NC(=O)[C@@H](NC(=O)[C@H](Cc1c[nH]cn1)NC(=O)[C@@H](NC(=O)[C@@H](NC(=O)[C@@H]1CCCN1C(=O)[C@H](CO)NC(=O)[C@@H]1CCCN1C(=O)[C@H](CCC(N)=O)NC(=O)[C@@H](NC(=O)[C@H](CCCCN)NC(=O)[C@H](CO)NC(=O)[C@@H]1CCCN1C(=O)[C@@H](NC(=O)[C@H](C)NC(=O)[C@H](CCC(N)=O)NC(=O)[C@@H](NC(=O)CCCC[C@@H]1SC[C@@H]2NC(=O)N[C@@H]21)C(C)C)[C@@H](C)O)C(C)C)[C@@H](C)OP(=O)(O)O)C(C)C)[C@@H](C)O)[C@@H](C)CC)C(=O)N[C@@H](Cc1ccccc1)C(=O)N[C@@H](CCC(N)=O)C(=O)N[C@@H](C)C(=O)N1CCC[C@H]1C(=O)N[C@H](C(=O)N[C@@H](CC(C)C)C(=O)N[C@@H](Cc1c[nH]c2ccccc12)C(=O)O)[C@@H](C)O` [CD1 pT461] (Biotin-VQATPSKVQPSP[pT]VHTKEALGFI[Nle]N[Nle]FQAPTLW-OH; C-terminus assumed), for which the KD entry is reported as “the same affinity towards phosphorylated CD1 as wild type Mad1”.

These data come from PMC5472792, “Bub1 positions Mad1 close to KNL1 MELT repeats to promote checkpoint signalling” (Nature Communications, 2017).
